Columns and labels:
Format in all cases: in vivo
[1] = tested on: Alopecurus myosuroides; experiment: Post-emergence herbicidal action against ALOMY
Procedure, shortened: (§1)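 Foliar application at one-leaf stage of formulated test compounds, aqueous spray at 600–800 l/ha with 0.2% wetting agent. Greenhouse, optimal conditions, ~3 weeks; damage scored visually in % relative to untreated plants.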

[2] = tested on: Setaria viridis; experiment: Pre-emergence herbicidal action against SETVI
Procedure, shortened: (§2)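 Greenhouse pots of sandy loam held seeds covered with soil, onto which the compound was applied before emergence. An aqueous suspension or emulsion of WP or EC was used at 600 to 800 l/ha with 0.2% wetting agent. Percent damage was judged visually at 3 weeks.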

[3] = tested on: Alopecurus myosuroides; experiment: Pre-emergence herbicidal action against ALOMY; conditions: visual score after 3 weeks vs untreated controls
Procedure, shortened: as §2

[4] = tested on: Stellaria media; experiment: Pre-emergence herbicidal action against STEME
Procedure, shortened: as §2

[5] = tested on: Amaranthus retroflexus; experiment: Pre-emergence herbicidal action against AMARE; conditions: visual score after 3 weeks vs untreated controls
Procedure, shortened: as §2

[6] = tested on: Abutilon theophrasti; experiment: Post-emergence herbicidal action against ABUTH
Procedure, shortened: as §1

[7] = tested on: Veronica persica; experiment: Post-emergence herbicidal action against VERPE; conditions: visual assessment about 3 weeks after treatment
Procedure, shortened: as §1

[8] = tested on: Avena fatua; experiment: Post-emergence herbicidal action against AVEFA; conditions: visual assessment about 3 weeks after treatment
Procedure, shortened: as §1

[9] = tested on: Pharbitis purpurea; experiment: Post-emergence herbicidal action against PHBPU; conditions: visual assessment about 3 weeks after treatment
Procedure, shortened: as §1

[10] = tested on: Matricaria inodora; experiment: Pre-emergence herbicidal action against MATIN; conditions: visual score after 3 weeks vs untreated controls
Procedure, shortened: as §2

[11] = tested on: Lolium rigidum; experiment: Post-emergence herbicidal action against LOLRI; conditions: 80 g/ha
Method: (§3) Seeds of monocotyledonous and dicotyledonous weed and crop plants are laid out in sandy loam soil in wood-fiber pots, covered with soil and cultivated in a greenhouse under good growth conditions. 2 to 3 weeks after sowing, the test plants are treated at the one-leaf stage. The compounds of the invention, formulated in the form of wettable powders (WP) or as emulsion concentrates (EC), are then sprayed onto the green parts of the plants in the form of an aqueous suspension or emulsion at a water application rate equivalent to 600 to 800 l/ha, with addition of 0.2% wetting agent. After the test plants have been left to stand in the greenhouse under optimal growth conditions for about 3 weeks, the action of the preparations is assessed visually in comparison to untreated controls (herbicidal action in percent (%): 100% activity=the plants have died, 0% activity=like control plants). […] The tables below illustrate, in an illustrative manner, the post-emergence herbicidal action of the compounds of the invention, the herbicidal activity being stated in percent.

[12] = tested on: Abutilon theophrasti; experiment: Pre-emergence herbicidal action against ABUTH; conditions: visual score after 3 weeks vs untreated controls
Procedure, shortened: as §2

[13] = tested on: Hordeum murinum; experiment: Pre-emergence herbicidal action against HORMU; conditions: 320 g/ha; visual score after 3 weeks vs untreated controls
Procedure, shortened: as §2

[14] = tested on: Setaria viridis; experiment: Post-emergence herbicidal action against SETVI; conditions: visual assessment about 3 weeks after treatment
Procedure, shortened: as §1

[15] = tested on: Echinochloa crus-galli; experiment: Pre-emergence herbicidal action against ECHCG; conditions: 320 g/ha; visual score after 3 weeks vs untreated controls
Procedure, shortened: as §2

[16] = tested on: Lolium rigidum; experiment: Pre-emergence herbicidal action against LOLRI; conditions: 320 g/ha
Procedure, shortened: as §2

[17] = tested on: Cyperus esculentus; experiment: Post-emergence herbicidal action against CYPES; conditions: 80 g/ha, visual assessment about 3 weeks after treatment
Method: as §3

[18] = tested on: Avena fatua; experiment: Pre-emergence herbicidal action against AVEFA; conditions: visual score after 3 weeks vs untreated controls
Procedure, shortened: as §2

[19] = tested on: Viola tricolor; experiment: Pre-emergence herbicidal action against VIOTR; conditions: 320 g/ha
Procedure, shortened: as §2

[20] = tested on: Matricaria inodora; experiment: Post-emergence herbicidal action against MATIN; conditions: visual assessment about 3 weeks after treatment
Procedure, shortened: as §1

[21] = tested on: Viola tricolor; experiment: Post-emergence herbicidal action against VIOTR
Procedure, shortened: as §1

[22] = tested on: Cyperus esculentus; experiment: Pre-emergence herbicidal action against CYPES; conditions: visual score after 3 weeks vs untreated controls
Procedure, shortened: as §2

[23] = tested on: Amaranthus retroflexus; experiment: Post-emergence herbicidal action against AMARE; conditions: visual assessment about 3 weeks after treatment
Procedure, shortened: as §1

[24] = tested on: Veronica persica; experiment: Pre-emergence herbicidal action against VERPE
Procedure, shortened: as §2

[25] = tested on: Polygonum convolvulus; experiment: Pre-emergence herbicidal action against POLCO
Procedure, shortened: as §2

[26] = tested on: Echinochloa crus-galli; experiment: Post-emergence herbicidal action against ECHCG; conditions: visual assessment about 3 weeks after treatment
Procedure, shortened: as §1

[27] = tested on: Polygonum convolvulus; experiment: Post-emergence herbicidal action against POLCO; conditions: 80 g/ha, visual assessment about 3 weeks after treatment
Procedure, shortened: as §1

[28] = tested on: Stellaria media; experiment: Post-emergence herbicidal action against STEME; conditions: visual assessment about 3 weeks after treatment
Procedure, shortened: as §1

## CCn1nnnc1NC(=O)c1ccc(C(F)(F)F)c(C(=O)N2CCCC2)c1Cl [Example 2-152]
[1]; 5 g/ha
  Post-emergence action against ALOMY: 80%
[1]; 20 g/ha
  Post-emergence action against ALOMY: 90%
[1]; 80 g/ha
  Post-emergence action against ALOMY: 100%
[2]; 80 g/ha
  Pre-emergence action against SETVI: 90%
[2]; 320 g/ha
  Pre-emergence action against SETVI: 100%
[3]; 80 g/ha
  Pre-emergence action against ALOMY: 90%
[3]; 320 g/ha
  Pre-emergence action against ALOMY: 100%
[4]; 20 g/ha
  Pre-emergence action against STEME: 100%
[4]; 80 g/ha
  Pre-emergence action against STEME: 100%
[4]; 320 g/ha
  Pre-emergence action against STEME: 100%
[5]; 20 g/ha
  Pre-emergence action against AMARE: 100%
[5]; 80 g/ha
  Pre-emergence action against AMARE: 100%
[5]; 320 g/ha
  Pre-emergence action against AMARE: 100%
[6]; 5 g/ha
  Post-emergence action against ABUTH: 80%
[6]; 20 g/ha
  Post-emergence action against ABUTH: 80%
[6]; 80 g/ha
  Post-emergence action against ABUTH: 80%
[7]; 5 g/ha
  Post-emergence action against VERPE in %: 80%
[7]; 20 g/ha
  Post-emergence action against VERPE in %: 80%
[7]; 80 g/ha
  Post-emergence action against VERPE in %: 80%
[8]; 5 g/ha
  Post-emergence action against AVEFA in %: 80%
[8]; 20 g/ha
  Post-emergence action against AVEFA in %: 100%
[8]; 80 g/ha
  Post-emergence action against AVEFA in %: 100%
[9]; 20 g/ha
  Post-emergence action against PHBPU in %: 80%
[9]; 80 g/ha
  Post-emergence action against PHBPU in %: 80%
[10]; 20 g/ha
  Pre-emergence action against MATIN: 90%
[10]; 80 g/ha
  Pre-emergence action against MATIN: 100%
[10]; 320 g/ha
  Pre-emergence action against MATIN: 100%
[11]
  Post-emergence action against LOLRI in %: 90%
[12]; 20 g/ha
  Pre-emergence action against ABUTH: 100%
[12]; 80 g/ha
  Pre-emergence action against ABUTH: 100%
[12]; Dosage column 320 g/ha (heading prints 3200 g/ha)
  Pre-emergence action against ABUTH: 100%
[13]
  Pre-emergence action against HORMU: 80%
[14]; 20 g/ha
  Post-emergence action against SETVI in %: 80%
[14]; 80 g/ha
  Post-emergence action against SETVI in %: 100%
[15]
  Pre-emergence action against ECHCG: 100%
[16]
  Pre-emergence action against LOLRI: 100%
[17]
  Post-emergence action against CYPES in %: 80%
[18]; 80 g/ha
  Pre-emergence action against AVEFA: 100%
[18]; 320 g/ha
  Pre-emergence action against AVEFA: 100%
[19]
  Pre-emergence action against VIOTR: 100%
[20]; 5 g/ha
  Post-emergence action against MATIN in %: 80%
[20]; 20 g/ha
  Post-emergence action against MATIN in %: 80%
[20]; 80 g/ha
  Post-emergence action against MATIN in %: 100%
[21]; 20 g/ha
  Post-emergence action against VIOTR in %: 100%
[21]; 80 g/ha
  Post-emergence action against VIOTR in %: 100%
[22]; 80 g/ha
  Pre-emergence action against CYPES: 80%
[22]; 320 g/ha
  Pre-emergence action against CYPES: 100%
[23]; 5 g/ha
  Post-emergence action against AMARE in %: 100%
[23]; 20 g/ha
  Post-emergence action against AMARE in %: 100%
[23]; 80 g/ha
  Post-emergence action against AMARE in %: 100%
[24]; 80 g/ha
  Pre-emergence action against VERPE: 80%
[24]; 320 g/ha
  Pre-emergence action against VERPE: 100%
[25]; 80 g/ha
  Pre-emergence action against POLCO: 80%
[25]; 320 g/ha
  Pre-emergence action against POLCO: 90%
[26]; 20 g/ha
  Post-emergence action against ECHCG in %: 100%
[26]; 80 g/ha
  Post-emergence action against ECHCG in %: 100%
[27]
  Post-emergence action against POLCO in %: 80%
[28]; 5 g/ha
  Post-emergence action against STEME in %: 80%
[28]; 20 g/ha
  Post-emergence action against STEME in %: 90%
[28]; 80 g/ha
  Post-emergence action against STEME in %: 90%

From patent US12599136B2, “Substituted isophthalic acid diamides and their use as herbicides” (Bayer Aktiengesellschaft, priority 2020, dated 2026)
